We go through 6 compounds from ChEMBL document CHEMBL5316276, “Discovery of the First Lactate Dehydrogenase Proteolysis Targeting Chimera Degrader for the Treatment of Pancreatic Cancer” (J Med Chem, 2023).

In assay [1] the target is T1, von Hippel-Lindau disease tumor suppressor/L-lactate dehydrogenase A chain (Homo sapiens) (UniProt P00338+P40337). As to the kind of experiment: Protac activity at VHL E3 ligase/LDHA in human PANC-1 cells assessed as induction of LDHA degradation at 10 uM incubated for 48 hrs by Western blotting analysis. The format is cell-based. For orientation: Immunoblotting shows a protein as a band on a membrane.

Assay [2] addresses T2, L-lactate dehydrogenase B chain (Homo sapiens, UniProt P07195). As to the kind of experiment: Inhibition of recombinant human LDHB.
Assay [3] has as its target T3, L-lactate dehydrogenase A chain (Homo sapiens, UniProt P00338). As to the kind of experiment: Inhibition of recombinant human LDHA.
The test system of assay [4] is BXPC-3. Briefly: Antiproliferative activity against human BXPC-3 cells assessed as cell growth inhibition incubated for 72 hrs by WST-8 assay. In kind it is functional, cell-based. (In general: Tetrazolium assays rely on reduction of a dye to a coloured formazan, in cell work by metabolically active cells.)
The subject of assay [5] is PANC-1. Briefly: Antiproliferative activity against human PANC-1 cells assessed as cell growth inhibition incubated for 72 hrs by WST-8 assay. In kind it is functional.
Assay [6] concerns MIA PaCa-2. As to the kind of experiment: Antiproliferative activity against human MIA PaCa-2 cells assessed as cell growth inhibition incubated for 72 hrs by WST-8 assay. In kind it is functional.
For assay [7], the target named is T1, von Hippel-Lindau disease tumor suppressor/L-lactate dehydrogenase A chain (Homo sapiens). Briefly: Protac activity at VHL/LDHA in human BXPC-3 cells assessed as induction of LDHA degradation at 0.3 to 3 uM incubated for 24 hrs by Western blotting analysis. To be noted: dose 0.3-3 µM. The format is cell-based.
Assay [8] shares this target. As to the kind of experiment: Protac activity at VHL E3 ligase/LDHA in human MIA PaCa-2 cells assessed as induction of LDHA degradation at 0.3 to 3 uM incubated for 24 hrs by Western blotting analysis. The format is cell-based. To be noted: dose 0.3-3 µM.
Assay [9] addresses T3, L-lactate dehydrogenase A chain. As to the kind of experiment: Inhibition of human LDHA.
Assay [10] has as its target T2, L-lactate dehydrogenase B chain. As to the kind of experiment: Inhibition of human LDHB.

pIC50: −log10 of the molar value. The source made the active and inactive calls. The rule behind the calls is not given here.

T2 sequence (P07195 whole entry): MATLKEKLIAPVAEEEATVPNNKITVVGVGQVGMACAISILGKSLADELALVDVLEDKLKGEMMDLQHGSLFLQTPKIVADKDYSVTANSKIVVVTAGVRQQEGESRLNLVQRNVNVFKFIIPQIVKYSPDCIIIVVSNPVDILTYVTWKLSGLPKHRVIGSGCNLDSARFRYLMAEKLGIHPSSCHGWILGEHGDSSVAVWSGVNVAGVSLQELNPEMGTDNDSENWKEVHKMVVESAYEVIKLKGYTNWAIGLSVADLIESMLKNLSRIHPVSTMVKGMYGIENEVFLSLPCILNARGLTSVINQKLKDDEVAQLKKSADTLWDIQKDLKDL

`Cc1ncsc1-c1ccc(CNC(=O)[C@@H]2C[C@@H](O)CN2C(=O)[C@@H](NC(=O)CCCCCC(=O)NCCCCC#Cc2cccc(-c3nn(-c4nc(C(=O)O)cs4)c(CC4CC4)c3Cc3ccc(S(N)(=O)=O)cc3)c2)C(C)(C)C)cc1`: the result in assay [1] was Active.

A word on the pIC50: it is the IC50 on a negative log10 scale, so that one unit is a factor of ten. Regarding `Cc1ncsc1-c1ccc(CNC(=O)[C@@H]2C[C@@H](OCc3ccccc3)CN2C(=O)[C@@H](NC(=O)CCCCCCCCCCCC(=O)NCCCCC#Cc2cccc(-c3nn(-c4nc(C(=O)O)cs4)c(CC4CC4)c3Cc3ccc(S(N)(=O)=O)cc3)c2)C(C)(C)C)cc1`, the values for the negative logarithm of the IC50 (pIC50) in assay [2] and in [3] were 7.37 and 8.59, respectively.

Turning to `Cc1ncsc1-c1ccc(CNC(=O)[C@@H]2C[C@@H](O)CN2C(=O)[C@@H](NC(=O)CCCCCCC(=O)NCCCCC#Cc2cccc(-c3nn(-c4nc(C(=O)O)cs4)c(CC4CC4)c3Cc3ccc(S(N)(=O)=O)cc3)c2)C(C)(C)C)cc1`, in [1], the result was Active.

Take `Cc1ncsc1-c1ccc(CNC(=O)[C@@H]2C[C@@H](O)CN2C(=O)[C@@H](NC(=O)CCCCC(=O)NCCCCC#Cc2cccc(-c3nn(-c4nc(C(=O)O)cs4)c(CC4CC4)c3Cc3ccc(S(N)(=O)=O)cc3)c2)C(C)(C)C)cc1`: in assay [1], the result was Active.

In general, GI50 refers to the concentration giving 50% growth inhibition. As to `NS(=O)(=O)c1ccc(Cc2c(-c3cccc(-c4ccccc4)c3)nn(-c3nc(C(=O)O)cs3)c2CC2CC2)cc1`, the inhibition entry in assay [4] is “inactive”. Moreover, the GI50 in assay [5] and in [6] was > 30 µM throughout. For the same compound, the outcome in [7] and in [8] was inactive.

Take `Cc1ccc(C#Cc2cccc(-c3nn(-c4nc(C(=O)O)cs4)c(CC4CC4)c3Cc3ccc(S(N)(=O)=O)c(F)c3)c2)s1`: the negative logarithm of the IC50 (pIC50) in assay [9] is 8.52; in assay [10], 8.30.
